Reference: patent US20240173333A1, “Treating Alagille Syndrome (ALGS)” (priority 2022, published 2024)
Like-named read-outs stand apart in the source and are kept apart here. Marks after values point to notes of the source that are not given here.

Assays:
[1] = test system: pediatric patient with genetic confirmation of ALGS
Text: The ileal bile acid transporter (IBAT) is a regulator of the enterohepatic bile acid circulation (Karpen et al.). Given the central feature of cholestasis in ALGS and the role of IBAT in bile acid homeostasis, IBAT inhibitors may help alleviate symptoms of ALGS. The IBAT inhibitor odevixibat is indicated for treatment of pruritus in patients ≥3 months old with progressive familial intrahepatic cholestasis (PFIC), another pediatric cholestatic liver disease, in the US and for treatment of PFIC in patients aged ≥6 months in the European Union.
The patient was referred to specialist care […]. […] […], a liver biopsy was performed.
During this clinical course, the patient received UDCA (15 mg/kg body weight) and naltrexone (1 mg/kg/day), treatments that were pursued according to German treatment guidelines and following discussions among the care team and with the patient's parents.

[2] = test system: patients with Alagille syndrome (ALGS); test: Pooled ASSERT and ASSERT-EXT: sleep parameters; type: in vivo, human
Experimental: In the completed 24-week ASSERT study, patients with ALGS with history of significant pruritus and elevated serum BAs were randomized 2:1 to once-daily odevixibat 120 μg/kg or placebo, respectively. Patients who completed ASSERT could enter ASSERT-EXT, an ongoing, 72-week open-label extension study in which all patients receive odevixibat 120 μg/kg/day. This pooled analysis included all odevixibat-treated patients from ASSERT and/or ASSERT-EXT and spans from patients' first dose of odevixibat to a data cut-off of Sep. 9, 2022. Assessments over up to 36 weeks of treatment included change in observer-reported scratching scores and sleep parameters, as well as levels of serum BAs, autotaxin (a proposed meditator of pruritus), and 7 alpha-hydroxy-4-cholesten-3-one (C4; a marker of bile acid synthesis). Safety evaluations included assessment of alanine aminotransferase (ALT), total bilirubin, and treatment-emergent adverse events (TEAEs).

[3] = test system: patients with Alagille syndrome (ALGS); test: ASSERT phase 3 trial: ObsRO scratching score and pruritus response; type: in vivo, human; details: 120 μg/kg/day
Experimental: Odevixibat is an orally administered, potent, luminally restricted, selective IBAT inhibitor in development to treat cholestatic liver diseases. In this phase 3, double-blind, randomized, 24-week trial (ASSERT), the efficacy and safety of odevixibat versus placebo was evaluated in patients with Alagille Syndrome (ALGS). The efficacy of odevixibat in patients with ALGS was evaluated in a 24-week, randomized, double-blind, placebo-controlled trial conducted in 52 patients with a confirmed diagnosis of ALGS (NCT04674761; ASSERT). Patients were randomized 2:1 to receive odevixibat 120 μg/kg/day or placebo.
The study consisted of a screening phase and parallel-design treatment period. Two screening visits occurred: the first took place during days −56 to −21 prior to the first dose of study drug and the second occurred during days −49 to ˜14. On day 0, all eligible patients were randomized 2:1 to oral, 120 μg/kg/day odevixibat or once-daily placebo. Eligibility for randomization was determined using pruritus or scratching reports from observer reported outcome (ObsRO)/patient reported outcome (PRO) data for evaluation of itching (PRO), scratching (ObsRO), and sleep disturbance (PRO and ObsRO) in the 14 days before Study Day 1, clinical genetic confirmation of diagnosis, and the liver biochemistry evaluations from the previous screening visits. After written informed consent was obtained, an Interactive Web Response System (IWRS) was used to assign patients to treatment. The randomization codes were computer generated by Albireo or a qualified randomization vendor.
A single primary endpoint was evaluated. The primary endpoint in this study was the change from baseline in scratching to Month 6 (Weeks 21 to 24) as measured by the observer-reported outcome (ObsRO) instrument.
Itching, Scratching, and Sleep Parameters. Itching, observed scratching, and sleep disturbance were recorded twice each day via eDiary. Patients and/or caregivers were instructed to complete the eDiary every day in the morning after the patient woke and in the evening just before the patient went to sleep throughout the study. The eDiary included ObsRO and PRO items. The PRO items assessed severity of itch, aspects of sleep disturbance (morning diary only), and tiredness. The ObsRO items assessed severity of observed scratching, aspects of observed sleep disturbance (morning diary only), and signs of tiredness (evening diary only). […]
Statistical Analyses. […] After a minimum of 18 patients had completed the Week 16 visit, the pooled SD of change from baseline to Month 4 (Weeks 13-16 assessments) and available change from baseline to Month 6 (Weeks 21-24 assessments) in average monthly scratching score was calculated by an independent statistician to assess the need for sample size re-estimation. […]

## CCCCC1(CCCC)CN(c2ccccc2)c2cc(SC)c(OCC(=O)N[C@@H](C(=O)N[C@@H](CC)C(=O)O)c3ccc(O)cc3)cc2S(=O)(=O)N1 [odevixibat, 1,1-dioxo-3,3-dibutyl-5-phenyl-7-methylthio-8-(N-{(R)-α-[N-((S)-1-carboxypropyl)carbamoyl]-4-hydroxybenzyl}carbamoylmethoxy)-2,3,4,5-tetrahydro-1,2,5-benzothiadiazepine]
[1]; 30 μg/kg/day, September to October 2021
  effect of dosage change on sBAs: associated with an increase in sBAs
[1]; Apr. 27, 2021 to May 31, 2021, 120 μg/kg/day started May 19, 2021
  drop in sBAs: approximately 90%
[1]; May 31, 2021, from 700 μmol/L on Apr. 27, 2021, 120 μg/kg/day
  sBAs after start of odevixibat: 69 µmol/L
[1]; after starting odevixibat
  bowel movements improved after: 1 week
  pruritus almost entirely disappeared within: ≤ 2 weeks
  pruritus stopped completely after: 8 months
[1]; back to 120 μg/kg/day in mid-December
  effect of dosage change on sBAs: corresponded with a drop in sBAs
[1]; in vivo
  adverse events: did not experience any adverse events
[1]; treatment duration
  sBA levels reached the normal range after: 8 months
[2]; Baseline, n=50
  Days seeing blood due to scratching, Mean (SD) % of Days: 35% (34%)
  Days sleeping with caregiver, Mean (SD) % of Days: 43% (45%)
  Days with help falling asleep, Mean (SD) % of Days: 57% (45%)
  Days with soothing, Mean (SD) % of Days: 64% (43%)
[2]; Weeks 33-36, n=21
  Days seeing blood due to scratching, Mean (SD) % of Days: 5.7% (14%)
  Days sleeping with caregiver, Mean (SD) % of Days: 10% (26%)
  Days with help falling asleep, Mean (SD) % of Days: 10% (18%)
  Days with soothing, Mean (SD) % of Days: 12% (25%)
[2]; n=21
  Days seeing blood due to scratching, Mean (95% CI) Change From Baseline to Week 33-36: −30% (−42%, −17%)***
  Days sleeping with caregiver, Mean (95% CI) Change From Baseline to Week 33-36: −44% (−64%, −24%)***
  Days with help falling asleep, Mean (95% CI) Change From Baseline to Week 33-36: −60% (−78%, −43%)***
  Days with soothing, Mean (95% CI) Change From Baseline to Week 33-36: −59% (−77%, −40%)***
[3]; baseline to Weeks 21-24, 34 patients
  LS mean change from baseline in scratching score (ObsRO): −1.69 points
[3]; onset of effect
  improvement in pruritus (mean monthly ObsRO scratching score) observed as early as: 1 week
[3]; week 12
  percentage of patients who were pruritus responders (≥1-point reduction in monthly scratching score from baseline): 74%
[3]; week 24 (weeks 21-24), n=35
  percentage of patients who were pruritus responders (≥1-point reduction in monthly scratching score from baseline): 80%
